Measured values as given in patent US11685746B2, “Heteroaryl compounds for treating Huntington's disease” (PTC THERAPEUTICS, INC., priority 2018, dated 2023).

system: Endogenous Huntingtin Protein; assay: Endogenous Huntingtin Protein Assay (MSD plates, MW1 or MAB2166 capture antibody); format: cell-based; settings: Table 1
Procedure, shortened: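 Endogenous huntingtin was captured overnight at 4° C on wells coated with 1 μg/mL MW1 (polyglutamine-specific) or MAB2166. Detection used rabbit #5656S and then goat anti-rabbit SULFO-TAG, both at 0.25 μg/mL and 1 h at room temperature. Plates were imaged on the MSD system in read buffer T.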

Structure (SMILES) | IC50 [µM]
[2H]C([2H])([2H])n1cc(-c2cnc(-c3nc4sc(N(C)C5CC(C)(C)NC(C)(C)C5)nc4s3)c(O)c2)cn1 [Compound 49, 5-[1-(^2H3)methyl-1H-pyrazol-4-yl]-2-{5-[methyl(2,2,6,6-tetramethylpiperidin-4-yl)amino][1,3]thiazolo[5,4-d][1,3]thiazol-2-yl}pyridin-3-ol] | ≤ 0.1
CN(c1nc2sc(-c3ccc(-c4cn[nH]c4)cc3O)nc2s1)C1CC(C)(C)NC(C)(C)C1 [Compound 1, 2-{5-[methyl(2,2,6,6-tetramethylpiperidin-4-yl)amino][1,3]thiazolo[5,4-d][1,3]thiazol-2-yl}-5-(1H-pyrazol-4-yl)phenol] | ≤ 0.1
COc1cc(-c2cnc(-c3nc4sc(N(C)[C@H]5C[C@]6(C)CC[C@](C)(C5)N6)nc4s3)cn2)ccn1 [Compound 69, N-[(1R,3s,5S)-1,5-dimethyl-8-azabicyclo[3.2.1]octan-3-yl]-5-[5-(2-methoxypyridin-4-yl)pyrazin-2-yl]-N-methyl[1,3]thiazolo[5,4-d][1,3]thiazol-2-amine] | 0.1 to 0.5
CN(c1nc2sc(-c3ncc(-c4cn[nH]c4Cl)cc3O)nc2s1)C1CCNCC1 [Compound 220, 5-(5-chloro-1H-pyrazol-4-yl)-2-{5-[methyl(piperidin-4-yl)amino][1,3]thiazolo[5,4-d][1,3]thiazol-2-yl}pyridin-3-ol] | ≤ 0.1
Cn1cc2cc(-c3nn4cc(C5CCNCC5)nc4s3)cc(C#N)c2n1 [Compound 27, 2-methyl-5-[6-(piperidin-4-yl)imidazo[2,1-b][1,3,4]thiadiazol-2-yl]-2H-indazole-7-carbonitrile] | ≤ 0.1
CC1CC(N(C)c2nc3sc(-c4ccc(-c5cn[nH]c5)c5cc[nH]c45)nc3s2)CCN1C (stereo not shown) [Compound 125, N-(1,2-dimethylpiperidin-4-yl)-N-methyl-5-[4-(1H-pyrazol-4-yl)-1H-indol-7-yl][1,3]thiazolo[5,4-d][1,3]thiazol-2-amine] | ≤ 0.1
CN(c1nn2cc(-c3ccc(-c4cn[nH]c4)cc3O)nc2s1)C1CC2CCC(C1)N2 (stereo not drawn) [Compound 18, 2-{2-[(3-exo)-8-azabicyclo[3.2.1]oct-3-yl(methyl)amino]imidazo[2,1-b][1,3,4]thiadiazol-6-yl}-5-(1H-pyrazol-4-yl)phenol] | 0.1 to 0.5
CC(C)(C)NC1CCN(c2nc3sc(-c4ncc(-c5cn[nH]c5)cn4)nc3s2)C1 (stereo not shown) [Compound 150, N-tert-butyl-1-{5-[5-(1H-pyrazol-4-yl)pyrimidin-2-yl][1,3]thiazolo[5,4-d][1,3]thiazol-2-yl}pyrrolidin-3-amine] | 1 to 3
[2H]C([2H])([2H])n1cc(-c2cnc(-c3nc4sc(N(C)C5CCNCC5)nc4s3)c(O)c2)cn1 [Compound 51, 2-{5-[methyl(piperidin-4-yl)amino][1,3]thiazolo[5,4-d][1,3]thiazol-2-yl}-5-[1-(^2H3)methyl-1H-pyrazol-4-yl]pyridin-3-ol] | ≤ 0.1
CN(c1nc2sc(-c3ccc(-c4cn[nH]c4)c(F)c3F)nc2s1)C1CC(C)(C)NC(C)(C)C1 [Compound 3, 5-[2,3-difluoro-4-(1H-pyrazol-4-yl)phenyl]-N-methyl-N-(2,2,6,6-tetramethylpiperidin-4-yl)[1,3]thiazolo[5,4-d][1,3]thiazol-2-amine] | 0.1 to 0.5
CN(c1nc2sc(-c3ncc(-c4cn[nH]c4)c4[nH]cnc34)nc2s1)C1CC(C)(C)NC(C)(C)C1 [Compound 136, N-methyl-5-[7-(1H-pyrazol-4-yl)-1H-imidazo[4,5-c]pyridin-4-yl]-N-(2,2,6,6-tetramethylpiperidin-4-yl)[1,3]thiazolo[5,4-d][1,3]thiazol-2-amine] | ≤ 0.1
CN(c1nc2sc(-n3ccc(-c4cn[nH]c4)cc3=O)nc2s1)[C@@H]1C[C@H]2CC[C@@H](C1)N2 [Compound 195, 1-(5-{[(1R,3s,5S)-8-azabicyclo[3.2.1]octan-3-yl](methyl)amino}[1,3]thiazolo[5,4-d][1,3]thiazol-2-yl)-4-(1H-pyrazol-4-yl)pyridin-2(1H)-one] | ≤ 0.1
COc1cc(-c2cnc(-c3nc4sc(N(C)[C@H]5C[C@]6(C)CC[C@](C)(C5)N6)nc4s3)cn2)ncn1 [Compound 65, N-[(1R,3s,5S)-1,5-dimethyl-8-azabicyclo[3.2.1]octan-3-yl]-5-[5-(6-methoxypyrimidin-4-yl)pyrazin-2-yl]-N-methyl[1,3]thiazolo[5,4-d][1,3]thiazol-2-amine] | 0.1 to 0.5
CN(c1nc2sc(-c3ccc(Br)c4cn[nH]c34)nc2s1)[C@H]1C[C@]2(C)CC[C@](C)(C1)N2 [Compound 111, 5-(4-bromo-1H-indazol-7-yl)-N-[(1R,3s,5S)-1,5-dimethyl-8-azabicyclo[3.2.1]octan-3-yl]-N-methyl[1,3]thiazolo[5,4-d][1,3]thiazol-2-amine] | ≤ 0.1
Cc1cn2cc(-c3nn4cc(C5CCNCC5)nc4s3)cc(C#N)c2n1 [Compound 29, 2-methyl-6-[6-(piperidin-4-yl)imidazo[2,1-b][1,3,4]thiadiazol-2-yl]imidazo[1,2-a]pyridine-8-carbonitrile] | 0.1 to 0.5
Cc1cn(-c2cnc(-c3nc4sc(N(C)[C@H]5C[C@]6(C)CC[C@](C)(C5)N6)nc4s3)cn2)cn1 [Compound 88, N-[(1R,3s,5S)-1,5-dimethyl-8-azabicyclo[3.2.1]octan-3-yl]-N-methyl-5-[5-(4-methyl-1H-imidazol-1-yl)pyrazin-2-yl][1,3]thiazolo[5,4-d][1,3]thiazol-2-amine] | ≤ 0.1

Structure (SMILES) | IC50 [µM]
CN(c1nc2sc(-c3cnc(-c4cn[nH]c4)cn3)nc2s1)[C@@H]1C[C@H]2CC[C@@H](C1)N2 [Compound 164, N-[(1R,3s,5S)-8-azabicyclo[3.2.1]octan-3-yl]-N-methyl-5-[5-(1H-pyrazol-4-yl)pyrazin-2-yl][1,3]thiazolo[5,4-d][1,3]thiazol-2-amine] | ≤ 0.1
Cc1cn2nc(-c3nc4sc(C5CCNCC5)nc4s3)cc(C)c2n1 [Compound 12, 2,8-dimethyl-6-[5-(piperidin-4-yl)[1,3]thiazolo[5,4-d][1,3]thiazol-2-yl]imidazo[1,2-b]pyridazine] | 0.1 to 0.5
CN(c1nc2sc(-c3ncc(-c4cn[nH]c4)cn3)nc2s1)C1CCNCC1 [Compound 201, N-methyl-N-(piperidin-4-yl)-5-[5-(1H-pyrazol-4-yl)pyrimidin-2-yl][1,3]thiazolo[5,4-d][1,3]thiazol-2-amine] | 0.5 to 1
Cc1cnn(-c2cnc(-c3nc4sc(N(C)C5CCNCC5)nc4s3)c(O)c2)c1 [Compound 63, 5-(4-methylpyrazol-1-yl)-2-[5-[methyl(4-piperidyl)amino]thiazolo[5,4-d]thiazol-2-yl]pyridin-3-ol] | 3 to 9
C[C@H]1C[C@@H](N(C)c2nc3sc(-c4ncc(-c5cnn(C)c5)c5cc[nH]c45)nc3s2)CCN1 [Compound 95, N-methyl-N-[(2S,4S)-2-methylpiperidin-4-yl]-5-[4-(1-methyl-1H-pyrazol-4-yl)-1H-pyrrolo[2,3-c]pyridin-7-yl][1,3]thiazolo[5,4-d][1,3]thiazol-2-amine] | ≤ 0.1
C[C@@H]1C[C@@H](Oc2nc3sc(-c4ncc(-c5cn[nH]c5)c5nc[nH]c45)nc3s2)CCN1 [Compound 83, 4-(5-{[(2R,4S)-2-methylpiperidin-4-yl]oxy}[1,3]thiazolo[5,4-d][1,3]thiazol-2-yl)-7-(1H-pyrazol-4-yl)-3H-imidazo[4,5-c]pyridine] | ≤ 0.1
CN(c1nc2sc(-c3ncc(-c4cn[nH]c4)cc3O)nc2s1)[C@@H]1CCNC1 [Compound 56, 2-(5-{methyl[(3R)-pyrrolidin-3-yl]amino}[1,3]thiazolo[5,4-d][1,3]thiazol-2-yl)-5-(1H-pyrazol-4-yl)pyridin-3-ol] | ≤ 0.1
CN(c1nc2sc(-c3ncc(Br)cc3O)nc2s1)C1CCNCC1 [Compound 57, 5-bromo-2-{5-[methyl(piperidin-4-yl)amino][1,3]thiazolo[5,4-d][1,3]thiazol-2-yl}pyridin-3-ol] | 1 to 3
CN(c1nc2sc(-n3cnc(-c4cn[nH]c4)cc3=O)nc2s1)[C@H]1C[C@]2(C)CC[C@](C)(C1)N2 [Compound 144, 3-(5-{[(1R,3s,5S)-1,5-dimethyl-8-azabicyclo[3.2.1]octan-3-yl](methyl)amino}[1,3]thiazolo[5,4-d][1,3]thiazol-2-yl)-6-(1H-pyrazol-4-yl)pyrimidin-4(3H)-one] | ≤ 0.1
CN(c1nc2sc(-c3ccc(-c4cnn(C)c4)cc3O)nc2s1)C1CCNCC1 [Compound 40, 2-{5-[methyl(piperidin-4-yl)amino][1,3]thiazolo[5,4-d][1,3]thiazol-2-yl}-5-(1-methyl-1H-pyrazol-4-yl)phenol] | ≤ 0.1
CN(c1nc2sc(-c3ncc(-c4ccnnc4)cc3O)nc2s1)C1CCNCC1 [Compound 225, 2-{5-[methyl(piperidin-4-yl)amino][1,3]thiazolo[5,4-d][1,3]thiazol-2-yl}-5-(pyridazin-4-yl)pyridin-3-ol] | ≤ 0.1
C[C@H]1C[C@H](N(C)c2nc3sc(-c4ncc(-n5ccnc5)c5cc[nH]c45)nc3s2)CCN1 [Compound 80, 5-[4-(1H-imidazol-1-yl)-1H-pyrrolo[2,3-c]pyridin-7-yl]-N-methyl-H-[(2S,4R)-2-methylpiperidin-4-yl][1,3]thiazolo[5,4-d][1,3]thiazol-2-amine] | ≤ 0.1
CN(c1nc2sc(-c3ncc(-c4cn[nH]c4)cc3O)nc2s1)[C@H]1CCNC1 [Compound 213, 2-(5-{methyl[(3S)-pyrrolidin-3-yl]amino}[1,3]thiazolo[5,4-d][1,3]thiazol-2-yl)-5-(1H-pyrazol-4-yl)pyridin-3-ol] | ≤ 0.1
C[C@@H]1C[C@@H](N(C)c2nc3sc(-c4ccc(-c5cn[nH]c5)cc4O)nc3s2)C[C@H](C)N1 [Compound 34, 2-(5-{[(2R,4s,6S)-2,6-dimethylpiperidin-4-yl](methyl)amino}[1,3]thiazolo[5,4-d][1,3]thiazol-2-yl)-5-(1H-pyrazol-4-yl)phenol] | ≤ 0.1
C[C@@H]1C[C@@H](N(C)c2nc3sc(-c4ncc(-c5cn[nH]c5)c5cc[nH]c45)nc3s2)CCN1 [Compound 85, N-methyl-N-[(2R,4S)-2-methylpiperidin-4-yl]-5-[4-(1H-pyrazol-4-yl)-1H-pyrrolo[2,3-c]pyridin-7-yl][1,3]thiazolo[5,4-d][1,3]thiazol-2-amine] | ≤ 0.1
